# Experimental data: US20070282004A1, “Use of a Cyclopentenone Prostaglandin for Delaying for the Onset and/or Preventing the Continuation of Labour” (Imperial College Innovations Limited, priority 2003, published 2007)
# Columns and labels:
# [1] = tested on: NF-κB; test: Western immunoblot of p65, p50, IκB in amnion cell extracts; type: cell-based, human; conditions: L−, L+ amnion cells; for IL-1β-induced p65 nuclear translocation: treated 2 h, IL-1β 15 min
# Procedure: Western immunoblots of nuclear or cytosolic protein extracts from (A) myometrial cells, (B) L− amnion cells, and (C) L+ amnion cells treated with 15dPGJ2 or vehicle for 2 h±IL-1β stimulation (15 min). Blots probed with antibodies against p65, p50 or IκBα.
# Placentae were obtained from patients at term either at elective Caesarean section prior to labour (L−) or following spontaneous labour onset and vaginal delivery (L+). Amnion cells were prepared as described in Bennett et al., (1989). Briefly, the amnion was separated from the placenta, washed 3× in PBS, cut into strips, and incubated in 0.5 mM EDTA in PBS for 15 min. The strips were washed in PBS 2× and digested with 2.5 mg/ml dispase in serum-free DMEM for 35 min at 37° C. The amnion was then shaken vigorously in DMEM, 10% FCS to dissociate the cells, the remaining strips discarded, and the cell suspension pelleted at 175 g for 10 min and cultured in DMEM, 10% FCS (Sigma), 1% L-glutamine, 1% penicillin-streptomycin.
# Nuclear and cytosolic protein extracts were obtained from cultured amnion cells as described by Schreiber et al (1989). For nuclear/cytosolic fractionation, confluent cell monolayers were scraped and lysed using a buffer containing 10 mM HEPES, 10 mM KCl, 0.1 mM EDTA, 0.1 mM EGTA, 2 mM DTT, 1% (v/v) NP-40 and complete protease inhibitor tablets (CPIs, Roche), diluted to manufacturer's instructions. Cell lysates were incubated on ice for 10 min and NP-40 added to a final concentration of 1% (v/v). Lysates were vortexed for 10 secs and centrifuged for 30 secs at 4° C., 12000 g. The supernatants were retained as the cytosolic protein extracts. The pellets were resuspended in buffer containing 10 mM HEPES, 10 mM KCl, 0.1 mM EDTA, 0.1 mM EGTA, 2 mM DTT, 400 mM NaCl, 1% NP-40 (v/v) and CPIs. Samples were shaken vigorously for 15 min in an ice bath. The nuclear protein extracts were obtained in the supernatant following a 5 min centrifugation at 4° C., 12000 g.
# Protein samples (20-70 μg) were mixed with Laemmli sample buffer (1:1) containing β-mercaptoethanol (5%), and boiled for 5 min. Proteins were then separated by SDS-PAGE (12-14% gels) and transferred onto PVDF membrane (Amersham Pharmacia Biotech). The membranes were blocked overnight in 5% non-fat milk prepared in PBS-T buffer, at 4° C. The blots were incubated with the primary antibody in 1% non-fat milk in PBS-T buffer for 1 h, and washed three times (10 min each) in PBS-T with vigorous shaking. The blots were then incubated with HRP-conjugated secondary antibody (diluted 1:2000 in 1% non-fat milk in PBS-T buffer) for 1 h and washed three times (10 min each) in PBS-T. Signal detection was achieved using enhanced chemi-luminescence (ECL plus system, Amersham Pharmacia Biotech) according to manufacturer's instructions.
# 30-50 μg protein extracts were subjected to SDS-PAGE and Western immuno-blotting. Secondary antibodies were IgG-HRP and ECL Plus detection kit (Amersham Pharmacia Biotech, Amersham Place, Little Chalfont, Bucks, HP7 9NA) was used for visualisation.
# [2] = tested on: TNFα; test: Mouse model of preterm labour (LPS): placental TNFα by ELISA; type: in vivo; conditions: gestation day 16 mice, 6 hours after intrauterine LPS + 15d-PGJ2 vs LPS + vehicle
# Procedure: Surgery was performed on timed pregnant MF1 mice at day 16 of gestation. After deep maternal anaesthesia was attained, a minilaparotomy was performed in the lower abdomen. The uterine horns were exposed through the incision and preterm labour was induced by the intrauterine injection of 250 μg lipopolysaccharide (LPS, Sigma) into the gravid horn. This was immediately followed by injection of 4 μg […] (Cayman), or an equal volume of vehicle (methyl acetate), at the same site. The uterus was then returned to the abdomen and the fascia and skin were closed with continuous vicryl sutures.
# Mice were sacrificed 6 hours after injection of LPS±15d-PGJ2. Placentae were washed in phosphate buffered saline (PBS), flash frozen in liquid nitrogen and stored at −80° C. until further processing. Fetuses were washed in PBS, then immediately fixed in 4% parafornaldellyde for 24 h and then stored in 70% ethanol until further processing. […]
# Homogenate levels of Interlekin-1β (IL-1β) and tumour necrosis factor α (TNFα) were determined in placental lysates by ELISA (R and D systems) according to manufacturers instructions. Total protein concentrations were determined for each homogenate and IL-1β and TNFα levels were expressed as pg/mg total protein. […] Phosphorylated p65 (phospho-p65) was detected by western immunoblotting using a specific antibody (Santa Cruz) and quantified by densitometric analysis.
compound,measurement,setting,value
"CCCCCC=CC=C1C(=O)C=C[C@@H]1CC=CCCCC(=O)O [15d-PGJ2, 15-deoxy-Δ^12,14prostaglandin J2]",IL-1β-induced IκBα degradation,[1],inhibition
same,IL-1β-induced IκBβ degradation,[1],inhibition
same,IL-1β-induced p50 phosphorylation,[1],inhibition
same,IL-1β-induced p65 nuclear translocation,[1],inhibited
same,IL-1β-induced p65 nuclear translocation,[1]; listed as 15dPGJ2,inhibition
same,TNFα levels in placentae according to drug treatment,[2],not significantly altered
